Test system: adipocytes
Assay: Hydrolysis of adipocyte triglycerides: release of non-esterified fatty acids (NEFA) into the medium (lipolysis)
Format: cell-based
Conditions: for % activity vs Control: untreated control = 100
Description: The adipocytes were isolated from an abdominal plasty and then incubated in the presence of collagenase, washed and taken up in test medium.
We then added the adipocyte suspension and the mixtures were incubated at 37° C. The NEFAs were assayed in the fractions of sub-adipocyte medium, after decantation. The assay was performed using an NEFA-C kit according to the manufacturer's instructions.
Two controls (a positive and a negative) of absence of interference of the product with the NEFA assay were performed.

Structure (SMILES) | NEFA (Example 1, 1 mM) [µM] | % activity vs Control (Example 1, 1 mM) [%] | NEFA (Example 2, 1 mM) [µM] | % activity vs Control (Example 2, 1 mM) [%] | NEFA (Example 1, 1 μM) [µM] | % activity vs Control (Example 1, 1 μM) [%] | NEFA (Example 2, 1 μM) [µM] | % activity vs Control (Example 2, 1 μM) [%]
Cn1c(=O)c2[nH]cnc2n(C)c1=O [Theophylline, theophylline] | 496.3 | 630 | 626.3 | 1888 | – | – | – | –
CC(C)NCC(O)c1ccc(O)c(O)c1 (centres unmarked) [Isoproterenol, isoproterenol] | – | – | – | – | 472.3 | 600 | 613.3 | 1849

— patent publication US20060141078A1, “Composition comprising a rice protein hydrolysate and an agent for increasing glycosaminoglycan synthesis” (L'OREAL, priority 2004, published 2006)
